Results from patent US11040959B2, “Diprovocims: a new and potent class of TLR agonists” (The Scripps Research Institute, priority 2016, dated 2021).
Like-named read-outs stand apart in the source and are kept apart here.

Key:
[1] = tested on: mouse macrophages; assay: stimulated release of TNF-α from mouse macrophages; format: cell-based
Excerpt: EC50 values are derived from dose-response curves for the stimulated release of TNF-α from differentiated THP-1 cells or mouse macrophages are shown beneath each appropriate structural formula of Compounds 8-12. Half maximal effective concentration (EC50) refers to the concentration of a drug, antibody or toxicant that induces a response halfway between the baseline and maximum after a specified exposure time. It is commonly used as a measure of a drug's potency.

[2] = tested on: differentiated human THP-1 cells; assay: stimulated release of TNF-α from differentiated human THP-1 cells (ELISA, dose-response); format: cell-based
Procedure: A screening campaign was conducted with nearly 100,000 compounds [(a) Whitby et al., Acc. Chem. Res. 2012, 45:1698-1709; and (b) Boger et al., Angew. Chem. Int. Ed. 2003, 42:4138-4176], using a newly developed functional assay that measured the stimulated release of TNF-α from treated human THP-1 cells partially differentiated along the macrophage line [unpublished results of the inventors and co-workers]. […] The libraries screened in the efforts represent a unique compound collection populated by nontraditional compounds [(a) Whitby et al., Acc. Chem. Res. 2012, 45:1698-1709; and (b) Boger et al., Angew. Chem. Int. Ed. 2003, 42:4138-4176] designed to target protein-protein [(a) Shaginian et al., J. Am. Chem. Soc. 2009, 131:5564-5572; and (b) Whitby et al., J. Am. Chem. Soc. 2011, 133:10184-10194] or protein-DNA interactions [Stover et al., J. Am. Chem. Soc. 2009, 131:3342-3348] as well as the major enzyme classes [Otrubova et al., Bioorg. Med. Chem. Lett. 2014, 24:3807-3813].
Hits were confirmed in an ELISA assay for stimulated TNF-α release from human PMA differentiated THP-1 cells and this assay was used for establishing dose-response curves and measured EC50 values.

[3] = Macrophage, Table 3, TNF-α release from mouse macrophages, read-out: EC50 (nM) (mouse)
[4] = Homo sapiens, THP-1, Table 3, TNF-α release from human THP-1 cells, read-out: EC50 (nM) (THP-1)
[5] = Macrophage, table of 125-132 (one lipid side chain, R and S), mouse macrophages, read-out: EC50 (nM) (mouse)
[6] = Homo sapiens, THP-1, table of 125-132 (one lipid side chain, R and S), human THP-1 cells, read-out: EC50 (nM) (THP-1)
[7] = Macrophage, table of 133-139 (two lipid side chains), mouse macrophages, read-out: EC50 (nM) (mouse)
[8] = Homo sapiens, THP-1, table of 133-139 (two lipid side chains), human THP-1 cells, read-out: EC50 (nM) (THP-1)
[9] = Macrophage, Table 1, TNF-α release from mouse macrophages, read-out: EC50 (nM) (mouse)
[10] = Homo sapiens, THP-1, Table 1, TNF-α release from human THP-1 cells, read-out: EC50 (nM) (THP-1)
[11] = Macrophage, Table 2, TNF-α release from mouse macrophages, read-out: EC50 (nM) (mouse)
[12] = Homo sapiens, THP-1, Table 2, TNF-α release from human THP-1 cells, read-out: EC50 (nM) (THP-1)

O=C(N[C@H]1C[C@@H]1c1ccccc1)[C@@H]1CN(C(=O)c2cc(Cl)c(C(=O)N3C[C@@H](C(=O)N[C@H]4C[C@@H]4c4ccccc4)[C@H](C(=O)N[C@H]4C[C@@H]4c4ccccc4)C3)cc2Cl)C[C@H]1C(=O)N[C@H]1C[C@@H]1c1ccccc1 [Compound 61, (3S,3′S,4S,4′S)-1,1′-(2,5-Dichloroterephthaloyl)-bis(N^3,N^4-bis((1S,2R)-2-phenylcyclopropyl)pyrrolidine-3,4-dicarboxamide)]
EC50 [1, 3]: > 5000 nM | EC50 [2, 4]: 360 nM

CCCCCCCCCCCCNC(=O)[C@H]1CCN(C(=O)c2ccc(C(=O)N3C[C@@H](C(=O)N[C@H]4C[C@@H]4c4ccccc4)[C@H](C(=O)N[C@H]4C[C@@H]4c4ccccc4)C3)cc2)C1 [Compound 131, (3S,4S)-1-(4-((S)-3-(Dodecylcarbamoyl)-pyrrolidine-1-carbonyl)benzoyl)—N^3,N^4-bis((1S,2R)-2-phenylcyclopropyl)pyrrolidine-3,4-dicarboxamide]
EC50 [1, 5]: 1000 nM | EC50 [2, 6]: 4 nM

O=C(N[C@@H]1C[C@H]1c1ccccc1)[C@@H]1CN(C(=O)c2ccc(C(=O)N3C[C@@H](C(=O)N[C@@H]4C[C@H]4c4ccccc4)[C@H](C(=O)N[C@@H]4C[C@H]4c4ccccc4)C3)cc2)C[C@H]1C(=O)N[C@@H]1C[C@H]1c1ccccc1 [Compound 20, (3S,3′S,4S,4′S)-1,1′-Terephthaloylbis-(N^3,N^4-bis((1R,2S)-2-phenylcyclopropyl)pyrrolidine-3,4-dicarboxamide)]
EC50 ([1]; Mus musculus, Macrophage, Scheme 1, footnote b, read-out: EC50 TNF-α release from mouse macrophages): > 5000 nM | EC50 ([2]; Homo sapiens, THP-1, Scheme 1, footnote a, read-out: EC50 TNF-α release from human THP-1 cells): > 5000 nM

CCCCCCCCCCCCNC(=O)[C@@H]1CN(C(=O)c2ccc(C(=O)N3C[C@@H](C(=O)N[C@H]4C[C@@H]4c4ccccc4)[C@H](C(=O)N[C@H]4C[C@@H]4c4ccccc4)C3)cc2)C[C@H]1C(=O)NCCCCCCCCCCCC [Compound 135, (3S,4S)-1-(4-((3S,4S)-3,4-Bis(((1S,2R)-2-phenylcyclopropyl)carbamoyl)pyrrolidine-1-carbonyl)benzoyl)-N^3,N^4-didodecylpyrrolidine-3,4-dicarboxamide]
EC50 [1, 7]: 1000 nM | EC50 [2, 8]: 1 nM

O=C(N[C@H]1C[C@@H]1c1ccccc1)[C@@H]1CN(C(=O)/C=C/C(=O)N2C[C@@H](C(=O)N[C@H]3C[C@@H]3c3ccccc3)[C@H](C(=O)N[C@H]3C[C@@H]3c3ccccc3)C2)C[C@H]1C(=O)N[C@H]1C[C@@H]1c1ccccc1 [Compound 36, (3S,3′S,4S,4′S)-1,1′-Fumaroyl-bis(N^3,N^4-bis((1S,2R)-2-phenylcyclopropyl)pyrrolidine-3,4-dicarboxamide)]
EC50 [1, 9]: > 5000 nM | EC50 [2, 10]: > 5000 nM

CCCCCCCCCCCCCCCCNC(=O)[C@@H]1CN(C(=O)c2ccc(C(=O)N3C[C@@H](C(=O)NCCCCCCCCCCCCCCCC)[C@H](C(=O)NCCCCCCCCCCCCCCCC)C3)cc2)C[C@H]1C(=O)NCCCCCCCCCCCCCCCC [Compound 140, (3S,3′S,4S,4′S)-1,1′-Terephthaloylbis(N^3,N^4-dihexadecylpyrrolidine-3,4-dicarboxamide)]
EC50 ([1]; Macrophage, table of 140-146 (four lipid side chains), mouse macrophages, read-out: EC50 (nM) (mouse)): > 5000 nM | EC50 ([2]; Homo sapiens, THP-1, table of 140-146 (four lipid side chains), human THP-1 cells, read-out: EC50 (nM) (THP-1)): > 5000 nM

O=C(N[C@H]1C[C@@H]1c1ccccc1)[C@@H]1CN(C(=O)c2ccc3cc(C(=O)N4C[C@@H](C(=O)N[C@H]5C[C@@H]5c5ccccc5)[C@H](C(=O)N[C@H]5C[C@@H]5c5ccccc5)C4)ccc3c2)C[C@H]1C(=O)N[C@H]1C[C@@H]1c1ccccc1 [Compound 44, (3S,3′S,4S,4′S)-1,1′-(Naphthalene-2,6-dicarbonyl)bis(N^3,N^4-bis((1S,2R)-2-phenylcyclopropyl)-pyrrolidine-3,4-dicarboxamide)]
EC50 [1, 11]: 380 nM | EC50 [2, 12]: 2 nM | fold less active/potent than diprovocim-1 (3) ([2]; human THP-1 cells): > 10 fold

CCCCCCCCCCNC(=O)[C@@H]1CN(C(=O)c2ccc(C(=O)N3C[C@@H](C(=O)N[C@H]4C[C@@H]4c4ccccc4)[C@H](C(=O)N[C@H]4C[C@@H]4c4ccccc4)C3)cc2)C[C@H]1C(=O)NCCCCCCCCCC [Compound 136, (3S,4S)-1-(4-((3S,4S)-3,4-Bis(((1S,2R)-2-phenylcyclopropyl)carbamoyl)pyrrolidine-1-carbonyl)benzoyl)-N^3,N^4-didecylpyrrolidine-3,4-dicarboxamide]
EC50 [1, 7]: 60 nM | EC50 [2, 8]: 0.28 nM

O=C(N[C@H]1C[C@@H]1c1ccccc1)[C@@H]1CN(C(=O)COCC(=O)N2C[C@@H](C(=O)N[C@H]3C[C@@H]3c3ccccc3)[C@H](C(=O)N[C@H]3C[C@@H]3c3ccccc3)C2)C[C@H]1C(=O)N[C@H]1C[C@@H]1c1ccccc1 [Compound 40, (3S,3′S,4S,4′S)-1,1′-(2,2′-Oxybis-(acetyl))bis-(N^3,N^4-bis((1S,2R)-2-phenylcyclopropyl)pyrrolidine-3,4-dicarboxamide)]
EC50 [1, 9]: > 5000 nM | EC50 [2, 10]: > 5000 nM

O=C(NCCc1ccc(F)cc1)C1CN(C(=O)COCC(=O)N2CC(C(=O)NCCc3ccc(F)cc3)C(C(=O)NCCc3ccc(F)cc3)C2)CC1C(=O)NCCc1ccc(F)cc1 [Compound 105, (3S,3′S,4S,4′S)-1,1′-(2,2′-Oxybis(acetyl))bis-(N^3,N^4-bis(4-fluorophenethyl)pyrrolidine-3,4-dicarboxamide)]
EC50 ([1]; Table 7, TNF-α release from mouse macrophages, read-out: EC50 (nM) (mouse)): > 5000 nM | EC50 ([2]; Table 7, TNF-α release from human THP-1 cells, read-out: EC50 (nM) (THP-1)): > 5000 nM

O=C(N[C@H]1C[C@@H]1c1ccccc1)[C@@H]1CN(C(=O)c2ccc(C(=O)N3C[C@@H](C(=O)N[C@H]4C[C@@H]4c4ccccc4)[C@H](C(=O)N[C@H]4C[C@@H]4c4ccccc4)C3)c3ccccc23)C[C@H]1C(=O)N[C@H]1C[C@@H]1c1ccccc1 [Compound 45, (3S,3′S,4S,4′S)-1,1′-(Naphthalene-1,4-dicarbonyl)bis(N^3,N^4-bis((1S,2R)-2-phenylcyclopropyl)-pyrrolidine-3,4-dicarboxamide)]
EC50 [1, 11]: > 5000 nM | EC50 [2, 12]: > 5000 nM

O=C(N[C@H]1C[C@@H]1c1ccccc1)[C@@H]1CN(C(=O)c2ccc(C(=O)N3C[C@@H](C(=O)N[C@H]4C[C@@H]4c4ccccc4)[C@H](C(=O)N[C@H]4C[C@@H]4c4ccccc4)C3)s2)C[C@H]1C(=O)N[C@H]1C[C@@H]1c1ccccc1 [Compound 49, (3S,3′S,4S,4′S)-1,1′-(Thiophene-2,5-dicarbonyl)-bis(N^3,N^4-bis((1S,2R)-2-phenylcyclopropyl)-pyrrolidine-3,4-dicarboxamide)]
EC50 [1, 3]: > 5000 nM | EC50 [2, 4]: 350 nM

CCCCCCCCCCCCCCNC(=O)[C@@H]1CCN(C(=O)c2ccc(C(=O)N3C[C@@H](C(=O)N[C@H]4C[C@@H]4c4ccccc4)[C@H](C(=O)N[C@H]4C[C@@H]4c4ccccc4)C3)cc2)C1 [Compound 126, (3S,4S)—N^3,N^4-Bis((1S,2R)-2-phenylcyclopropyl)-1-(4-((R)-3-(tetradecylcarbamoyl)pyrrolidine-1-carbonyl)benzoyl)pyrrolidine-3,4-dicarboxamide]
EC50 [1, 5]: 260 nM | EC50 [2, 6]: 2 nM

CCCCCCNC(=O)[C@@H]1CN(C(=O)c2ccc(C(=O)N3C[C@@H](C(=O)N[C@H]4C[C@@H]4c4ccccc4)[C@H](C(=O)N[C@H]4C[C@@H]4c4ccccc4)C3)cc2)C[C@H]1C(=O)NCCCCCC [Compound 138, (3S,4S)-1-(4-((3S,4S)-3,4-Bis(((1S,2R)-2-phenylcyclopropyl)carbamoyl)-pyrrolidine-1-carbonyl)benzoyl)-N^3,N^4-dihexylpyrrolidine-3,4-dicarboxamide]
EC50 [1, 7]: 4 nM | EC50 ([1]; Mus musculus, Macrophage, read-out: EC50, stimulated release of TNF-α from mouse macrophages): 4 nM | fold less potent/effective than diprovocim-1 ([1]; mouse macrophages): 4 fold | EC50 ([2]; Homo sapiens, THP-1, running text, read-out: EC50, stimulated release of TNF-α from differentiated human THP-1 cells): 0.18 nM | EC50 [2, 8]: 0.18 nM | fold less active/potent than diprovocim-1 (3) ([2]; human THP-1 cells): 2 fold | potency differential human THP-1 cells versus mouse macrophages ([2]; ratio of mouse to human potency): 20 fold
